The subject of series [1] is hexobarbital-treated ddY Strain male mice. Nature of the series: Barbiturate potentiation (duration of loss of righting reflex due to hexobarbital). The series is classed as in vivo, mouse (ddY Strain). To be noted: 0.5 h, read-out: Barbiturate potentiation (ratio with control groups). On the procedure:
ddY Strain male mice (4 - 5 weeks old, body weight 23 - 28 g) in groups of 5 mice each were orally treated with 100 mg/kg of samples and 30 minutes after the oral administration the mice were intraperitoneally treated with 100 mg/kg of hexobarbital. Duration of loss of righting reflex due to hexobarbital was determined and barbiturate potentiation ratios with control groups were calculated. Imipramine, desipramine and diazepam were used as control drugs.

Series [2] in a line: Acute toxicity, rat. Conditions: in vivo, po. From the text:
(§1) ddY Strain mice and Wistar-Imamichi strain rats were used to inspect acute toxicity and subacute toxicity (30 days; oral administration) of a compound of the formula [I].

In series [3] the test system is ddY Strain mice. Nature of the series: Acute toxicity, mouse. The series is classed as in vivo. Conditions: p.o.
Text: as §1

Series [4] is described as follows: Acute toxicity, mouse. The series is classed as in vivo. To be noted: in vivo, po.
Text: as §1

In series [5] the test system is Wistar-Imamichi strain rats. Nature of the series: Subacute toxicity (30 days; oral administration), rat. The series is classed as in vivo, rat (Wistar-Imamichi strain).
Text: as §1

Series [6] has as its system hexobarbital-treated ddY Strain male mice. Nature of the series: Barbiturate potentiation (duration of loss of righting reflex due to hexobarbital). Conditions: Mus musculus, po, 0.5 h, read-out: Barbiturate potentiation (ratio with control groups). Type of series: in vivo, mouse (ddY Strain).
[7] abbreviates: mouse, 100 mg/kg oral, 30 minutes before 100 mg/kg i.p. hexobarbital, loss of righting reflex duration.
The mark [8] stands for this setting: 30 days oral, at a dose of 50 mg/kg.

Structures can show the parent of a compound that is named as a salt. Where two headings read alike, the source gives them in different places.

As a reminder, the LD50 is the dose expected to kill half of the subjects tested. A lower LD50 goes with greater toxicity.

As for `CN(C)CCn1nc(-c2ccccc2)c2ccccc21` [Example 1, 1-dimethylaminoethyl-3-phenylindazole hydrochloride], the response vs control in vivo at 100 mg/kg in series [1] (setting [7]) was determined as 300%.

For the compound `CN(C)CCn1nc(-c2ccccc2)c2cc(Cl)ccc21` [Example 2, 1-dimethylaminoethyl-3-phenyl-5-chloroindazole hydrochloride], in series [1] (setting [7]), the response vs control in vivo at 100 mg/kg came to 150%.

As for `Cc1ccc2c(c1)c(-c1ccccc1)nn2CCN(C)C` [Example 3, 1-dimethylaminoethyl-3-phenyl-5-methylindazole hydrochloride], in series [1] (setting [7]), the response vs control in vivo at 100 mg/kg was determined as 150%.

Consider `CCN(CC)CCn1nc(-c2ccccc2)c2cc(Cl)ccc21` [Example 4, 1-diethylaminoethyl-3-phenyl-5-chloroindazole hydrochloride], for which the response vs control in vivo at 100 mg/kg in series [1] (setting [7]) turned out to be 120%.

For `CCN(CC)CCn1nc(-c2ccccc2)c2ccccc21` [Example 6, 1-diethylaminoethyl-3-phenylindazole hydrochloride], the response vs control in vivo at 100 mg/kg in series [1] (setting [7]) is 290%.

Take `CN(C)CCCn1nc(-c2ccccc2)c2ccccc21` [Example 7, 1-dimethylaminopropyl-3-phenylindazole hydrochloride]: the response vs control in vivo at 100 mg/kg in series [1] (setting [7]) was 190%.

As for `CN(C)CCCn1nc(-c2ccccc2)c2cc(Cl)ccc21` [Example 8, 1-dimethylaminopropyl-3-phenyl-5-chloroindazole hydrochloride], the response vs control in vivo at 100 mg/kg in series [1] (setting [7]) was found to be 130%.

As to `Cc1ccc2c(c1)c(-c1ccccc1)nn2CCCN(C)C` [Example 10, 1-dimethylaminopropyl-3-phenyl-5-methylindazole], the response vs control in vivo at 100 mg/kg in series [1] (setting [7]) was 100%. Moreover, the results for the LD50 in series [2], in series [3] and in series [4] were 3000 to 5000 mg/kg, 660 mg/kg and 580 mg/kg, respectively. Further, in series [5] (30 days oral, at a dose of 100 mg/kg), the “Subacute toxicity: fatality” value is given as “not fatal”. Also, in series [5] (in vivo, po, 100 mg/kg), the “Subacute toxicity: symptoms” value is on record as “no abnormal symptom”.

As to `c1ccc(-c2nn(CCCN3CCCCC3)c3ccccc23)cc1` [Example 11, 1-piperidinopropyl-3-phenylindazole hydrochloride], the response vs control in vivo at 100 mg/kg in series [1] (setting [7]) was 130%.

For the compound `Cc1ccc2c(c1)c(-c1ccccc1)nn2CCCN1CCCCC1` [Example 12, 1-piperidinopropyl-3-phenyl-5-methylindazole hydrochloride], in series [1] (setting [7]), the response vs control in vivo at 100 mg/kg is 100%.

As to `Clc1ccc2c(c1)c(-c1ccccc1)nn2CCN1CCOCC1` [Example 14, 1-morpholinoethyl-3-phenyl-5-chloroindazole hydrochloride], the response vs control in vivo at 100 mg/kg in series [1] (setting [7]) came out at 170%.

Regarding `Cc1ccc2c(c1)c(-c1ccccc1)nn2CCCN1CCOCC1` [Example 15, 1-morpholinopropyl-3-phenyl-5-methylindazole hydrochloride], in series [1] (setting [7]), the response vs control in vivo at 100 mg/kg stood at 140%.

Regarding `Cc1ccc2c(c1)c(-c1ccccc1)nn2CCCN1CCN(C)CC1` [Example 17, 1-N-methylpiperazinopropyl-3-phenyl-5-methylindazole hydrochloride], in series [1] (setting [7]), the response vs control in vivo at 100 mg/kg amounted to 100%.

As for `Clc1ccc2c(c1)c(-c1ccccc1)nn2CN1CCOCC1` [Example 19, 1-morpholinomethyl-3-phenyl-5-chloroindazole], in series [1] (setting [7]), the response vs control in vivo at 100 mg/kg stood at 120%.

As to `Cc1ccc2c(c1)c(-c1ccccc1)nn2CN1CCCC1` [Example 20, 1-pyrrolidinomethyl-3-phenyl-5-methylindazole hydrochloride], the response vs control in vivo at 100 mg/kg in series [1] (setting [7]) is 160%.

On to `c1ccc(-c2nn(CN3CCOCC3)c3ccccc23)cc1` [Example 23, 1-morpholinomethyl-3-phenylindazole], for which the response vs control in vivo at 100 mg/kg in series [1] (setting [7]) is 130%.

Consider `O=C1c2ccccc2C(=O)N1CCCn1nc(-c2ccccc2)c2cc(Cl)ccc21` [Example 25, 1-phthalimidopropyl-3-phenyl-5-chloroindazole], for which the response vs control in vivo at 100 mg/kg in series [1] (setting [7]) amounted to 110%.

In the case of `CNCCCn1nc(-c2ccccc2)c2cc(C)ccc21` [Example 29, 1-N-monomethylaminopropyl-3-phenyl-5-methylindazole hydrochloride], the response vs control in vivo at 100 mg/kg in series [1] (setting [7]) is 170%.

For the compound `Cc1ccc2c(c1)c(-c1ccccc1)nn2CCCN` [Example 34, 1-aminopropyl-3-phenyl-5-methylindazole], the response vs control in vivo at 100 mg/kg in series [1] (setting [7]) was 250%.

In the case of `CNCCCN1c2ccccc2CCc2ccccc21` [desipramine, reference compound], the response vs control in vivo at 100 mg/kg in series [1] (Mus musculus, po) is 150%.

Take `CN1C(=O)CN=C(c2ccccc2)c2cc(Cl)ccc21` [diazepam]: the response vs control in vivo at 5 mg/kg in series [6] was found to be 230%.

Consider `CN(C)CCCN1c2ccccc2CCc2ccccc21` [imipramine], for which, in series [1] (Mus musculus, po), the response vs control in vivo at 100 mg/kg was 130%. Moreover, in series [5] (setting [8]), the “Subacute toxicity: blood urine nitrogen” value is recorded as “reduced”, the “Subacute toxicity: fatality” value is recorded as “not fatal” and the “Subacute toxicity: hemoglobin” value is on record as “reduced”.

The values above are taken from US3994890A, “1-Aminoalkyl, 3-phenyl indazoles” (Chugai Seiyaku Kabushiki Kaisha, priority 1974, dated 1976).
